Data reported in US11813248B2, “NK-1 antagonist compositions and methods for use in treating depression” (priority 2017, dated 2023).

Columns and labels:
[1] = test system: PD patients; conditions: 0.125 to 1.0 mg three times per day; 12 weeks; 296 PD patients; p=0.01 vs placebo; cited from earlier work
[2] = test system: subjects; conditions: in vivo
Protocol: The study was a single center, single-blind study.
Once a subject had reached his/her first intolerable dose (FID-1), upward dose escalation was discontinued.
All other provisions of the protocol remained unchanged. Assessments were the same as those planned for the dose escalation day.
On each study day, subjects were followed up for up to 8 hours following drug administration for AEs, vital signs, ECGs. In addition, a laboratory panel was taken at screening and at the end of the study.

[3] = test system: animal behavior simulating symptoms of depression; conditions: high doses of pramipexole; cited from earlier work
[4] = test system: patients with a DSM-III-R diagnosis of major depression; conditions: pramipexole 5.0 mg group, cited from earlier work

## CCCN[C@H]1CCc2nc(N)sc2C1 [Pramipexole, (S)-6-propylamino-4,5,6,7-tetrahydro-1,3-benzothiazole-2-amine]
[1]
  BDI scores decreased by an adjusted: 5.9 (SE 0.5)
[2]
  dose limiting toxicity: gastro-intestinal adverse events
[3]
  activity in tests of animal behavior simulating symptoms of depression: active
[4]; 8 weeks of treatment
  patients who completed the study: 42.4%
[4]; change from baseline, no p value because of high drop-out rate
  improvement at week 8: −15.00
[4]
  patients reported nausea: 76%
  patients reported vomiting: 39%
[4]; mainly because of adverse events
  patients discontinued treatment prematurely: 57.6%
